Data: US8088934B2, “Composition and method for stabilizing the same” (SUCAMPO AG, priority 1999, dated 2012)
Blank lines part the entries; values can stand above or below the molecule they belong to.

Columns and labels:
Type in all cases: physicochemical
[1] = Stability of compound 1 stored at 40° C. for 4 weeks in various ratio of MCT to Mineral oil, content by HPLC
Procedure: (§1) Based on the value expressed in the table 1, an amount of the solution corresponding to 36 μg of the compound 1 or 2 was weighted precisely. Precisely 1.0 ml of an internal standard solution was added, and then ethyl acetate (liquid chromatograph grade) was added to give the total amount of 10 ml each. Each 0.1 ml of the solution was vacuum concentrated to dryness to give the test preparation.
(§2) Each 18 mg of the respective standard compounds was weighted precisely and admixed with ethyl acetate (liquid chromatograph grade) to give the total amount of exactly 50 ml each. One (1.0) ml of the solution and 10.0 ml of the internal standard solution were measured precisely and admixed with ethyl acetate (liquid chromatograph grade) to give the total amount of 100 ml each. Each 0.1 ml of the solution was vacuum concentrated to dryness to give the standard preparation.
(§3) To the test and standard preparations, 0.1 ml of fluorescent labeling reagent and 0.85 ml of fluorescent labeling catalyst were added respectively, and the mixture was stirred and reacted at room temperature more than 30 minutes. 0.05 ml aliquots of acetonitrile (liquid chromatograph grade) containing 2% acetic acid were added to the reaction mixtures respectively, stirred and then stand for more than 30 minutes to provide test and standard solutions.
(§4) Each 10 μl of the test and standard solutions was loaded on liquid chromatograph and determined the content of the respective compounds by internal standard method with one point calibration curve.
(§5) [formula] WS: The amount of the compound in the standard preparation (mg) QS: Peak area ratio of the compound in the standard preparation to the internal standard QT: Peak area ratio of the compound in the test preparation to the internal standard. Measurement Condition Detector: fluorescent spectrometer (excitation wavelength 259 nm, fluorescent wavelength 394 nm) Column: A stainless tube having about 5 mm of internal diameter and about 25 cm of length, packed with 5 μm octadecylsilyl silica gel for liquid chromatograph Column temperature: Stable at around 35° C. Mobile phase: Mixed solution of acetonitrile (liquid chromatograph grade)/methanol (liquid chromatograph grade)/aqueous ammonium acetate (0.05 mol/l) (4:11:5) The results are shown in Table 1 below.
(§6) Each of the solutions was placed in a container made of LDPE and stored at 40° C. The content of the compound in the solutions after four weeks were determined by HPLC method according to the above described (2) of Example 1 except for using composition shown in table 3 below.

[2] = Stability of the compounds dissolved in medium chain fatty acid triglyceride (MCT) stored at 40° C., content by HPLC; settings: for stability on admixing with the glyceride (conclusion from Table 1): MCT versus crystal; for content of the compound stored at 40° C., 14 days / content of the compound stored at 40° C., initial: in MCT (compound 1: 0.36 mg/g; compound 2: 0.12 mg/g)
Procedure: (§7) The above-described compounds 1 and 2 were dissolved in the medium chain fatty acid triglyceride (MCT)^31 at the amount shown in the table 1 below respectively. Each of the solutions was placed in a container made of hard glass and stored at 40° C. The time-course of the content of the compound 1 and 2 in the solutions were determined by HPLC method. The medium chain fatty acid triglyceride used herein was a mixture of caprylic acid triglyceride and capric acid triglyceride (85:15). At the same time, each of the compounds 1 and 2 was placed solely (without being dissolved in the solvent) in the container as above and stored at 40° C. to provide control study.
as §1, §2, §3, §4, §5

[3] = Stability of the compounds stored solely (crystal, without solvent) at 40° C., content by HPLC; settings: crystal (no solvent), hard glass container
Procedure: as §7
(1) Under the absence of the solvent, the content of the compound was determined as follows (HPLC method).
The stored compounds 1 and 2, and standard compounds 1 and 2 were weighed precisely around 0.025 g each, and exactly 5 ml aliquots of an internal standard solution were added to the respective weighed compounds. Then the test and standard preparations were obtained by adding acetonitrile (liquid chromatograph grade) to give the precise total amount of 10 ml each. Each 10 μl of the test and standard preparations was loaded on liquid chromatograph and determined the content of the compound by internal standard method with one point calibration curve.
[formula] Ws: The amount of the compound in the standard preparation (mg) WT: The amount of the compound 1 or 2 in the test preparation QS: Peak area ratio of the compound in the standard preparation to the internal standard. QT: Peak area ratio of the compound in the test preparation to the internal standard. Measurement Conditions Detector: Ultraviolet absorption spectrophotometer (wavelength: 294 nm) Column: A stainless tube having about 5 mm of internal diameter and about 25 cm of length, packed with 5 μm octadecylsilyl silica gel for liquid chromatograph Column temperature: Stable at around 35° C. Mobile phase: Mixed solution of acetonitrile (liquid chromatograph grade)/aqueous sodium acetate (0.01 mol/l)/glacial acetic acid (800:200:1) (2) Under the presence of the solvent, the content of the compound was determined as follows (HPLC method).

[4] = Stability of compound 1 stored at 40° C. for 4 weeks in various solvents and containers, content by HPLC
Procedure: as §1, §2, §3, §4, §5
as §6, with “low-density polyethylene (LDPE), hard glass or stainless steel” for “LDPE”, “compound 1” for “compound”, “2” for “3”

- % to the initial 4 weeks after ([1]; 0.5 μg/mL, MCT/MO (V/V) 1/99, LDPE): 91.0%
- % to the initial 4 weeks after ([1]; 0.5 μg/mL, MCT/MO (V/V) 2/98, LDPE): 96.6%
- % to the initial 4 weeks after ([1]; 0.5 μg/mL, MCT/MO (V/V) 5/95, LDPE): 98.1%
- % to the initial 4 weeks after ([1]; 0.5 μg/mL, MCT/MO (V/V) 10/90, LDPE): 99.0%
- % to the initial 4 weeks after ([1]; 0.7 μg/mL, MCT/MO (V/V) 0/100, LDPE): 88.3%
- % to the initial 4 weeks after ([1]; 10 μg/mL, MCT/MO (V/V) 50/50, LDPE): 101.9%
- stability on admixing with the mixture of glyceride and other oil solvent (conclusion from Table 3) ([1]; MCT/Mineral oil mixtures): significantly improved
- stability on admixing with the glyceride (conclusion from Table 1) [2]: significantly improved
- content of the compound stored at 40° C., 38 days ([2]; in MCT (compound 1: 0.36 mg/g), hard glass, 38 days): 102.1%
- content of the compound stored at 40° C., 90 days ([2]; in MCT (compound 1: 0.36 mg/g), hard glass, 90 days): 100.9%
- content of the compound stored at 40° C., 14 days ([2]; hard glass): 101.4%
- content of the compound stored at 40° C., initial ([2]; hard glass): 100%
- content of the compound stored at 40° C., 7 days ([3]; 7 days): 97.2%
- content of the compound stored at 40° C., 14 days [3]: 94.1%
- content of the compound stored at 40° C., 28 days [3]: 87.4%
- content of the compound stored at 40° C., initial [3]: 100%
- % to the initial 4 weeks after ([4]; 10 μg/mL, MCT, LDPE container): 100.8%
- % to the initial 4 weeks after ([4]; 10 μg/mL, Saline, Hard glass container): 18.0%
- % to the initial 4 weeks after ([4]; 20 μg/mL, Caster oil, LDPE container): 102.9%
- % to the initial 4 weeks after ([4]; 20 μg/mL, Corn oil, LDPE container): 99.6%
- % to the initial 4 weeks after ([4]; 20 μg/mL, Diluted water, Hard glass container): 39.6%
- % to the initial 4 weeks after ([4]; 20 μg/mL, MCT, Hard glass container): 99.5%
- % to the initial 4 weeks after ([4]; 20 μg/mL, MCT, Stainless steel container): 99.5%
- % to the initial 4 weeks after ([4]; 20 μg/mL, Olive oil, LDPE container): 99.0%
- % to the initial 4 weeks after ([4]; 20 μg/mL, Sesame oil, LDPE container): 100.1%
- stability on admixing with the glyceride (conclusion from Table 2) ([4]; glycerides versus water or saline): significantly improved
SMILES: CCCCC(F)(F)[C@@]1(O)CC[C@H]2[C@@H](CC(=O)[C@@H]2CCCCCCC(=O)O)O1 [compound 1, 7-[(1R,3R,6R,7R)-3-(1,1-difluoropentyl)-3-hydroxy-2-oxabicyclo[4.3.0]nonane-8-one-7-yl]heptanoic acid]

- stability on admixing with the glyceride (conclusion from Table 1) [2]: significantly improved
- content of the compound stored at 40° C., 14 days ([2]; hard glass): 99.6%
- content of the compound stored at 40° C., initial ([2]; hard glass): 100%
- content of the compound stored at 40° C., 28 days ([2]; in MCT (compound 2: 0.12 mg/g), hard glass, 28 days): 98.9%
- content of the compound stored at 40° C., 191 days ([2]; in MCT (compound 2: 0.12 mg/g), hard glass, 191 days): 99.6%
- content of the compound stored at 40° C., 6 days ([3]; 6 days): 84.5%
- content of the compound stored at 40° C., 14 days [3]: 75.0%
- content of the compound stored at 40° C., 28 days [3]: 53.4%
- content of the compound stored at 40° C., initial [3]: 100%
SMILES: CC[C@H](C)CC(F)(F)[C@@]1(O)CC[C@H]2[C@@H](CC(=O)[C@@H]2CCCCCCC(=O)O)O1 [compound 2, 7-[(1R,6R,7R)-3-[(3S)-1,1-difluoro-3-methylpentyl]-3-hydroxy-2-oxabicyclo[4.3.0]nonane-8-one-7-yl]heptanoic acid]
